Measurements from US20170112861A1, “DRUG DELIVERY ENHANCER COMPRISING SUBSTANCE FOR ACTIVATING LYSOPHOSPHOLIPID RECEPTORS” (Osaka University, priority 2014, published 2017).

Legend:
[1] = system: LLC cell tumors; test: Delivery of FITC-labeled dextrans (70 kDa, 2000 kDa) to tumor tissues after LPA administration; format: in vivo; conditions: LLC tumor-bearing mice, LPA 3 mg/kg i.p., dextran i.v. 24 hours later, tumors harvested after 30 minutes
Experimental: LLC cells were subcutaneously inoculated into C57BL/6 NCrSlc mice aged 8 weeks (females, SLC, Inc.) in the same manner as in Example 1. An LPA administration solution was prepared in the same manner as in Example 1. On day 11 post-inoculation of LLC cells, mice with a tumor volume of 100 to 120 mm^3 were selected. The mice were divided into four groups: control and LPA groups with administration of 70 kDa dextran, and control and LPA groups with administration of 2000 kDa dextran (n=3). LPA (3 mg/kg in 100 μL PBS) or PBS (100 μL) was administered intraperitoneally. At 24 hours after LPA or PBS administration, each type of dextran was administered to the tail vein of the mice under anesthesia with pentobarbital. The dextrans used (70 kDa and 2000 kDa) were FITC-labeled dextrans (Sigma). Each type of dextran was prepared as a solution by dissolving and diluting the FITC-labeled dextran in PBS to a concentration of […], and 100 μL of the solution was used for the administration. At 30 minutes after administration of each type of dextran, the tumors were harvested from the mice, and the tumor specimens were prepared in the same manner as in Example 4. The specimens were observed and photographed under a confocal laser microscope (Leica).

[2] = system: LLC cells; test: Combined administration of LPA and 5-FU, tumor growth in LLC cell tumor-bearing mice; format: in vivo
Experimental: LLC cells were subcutaneously inoculated into C57BL/6 NCrSlc mice aged 8 weeks in the same manner as in Example 1. An LPA administration solution was prepared in the same manner as in Example 1. The anticancer drug used was 5-FU (Kyowa Hakko Kirin Co., Ltd.). The 5-FU was prepared as a solution in physiological saline (Otsuka Pharmaceutical Co., Ltd.). On day 7 post-inoculation of LLC cells, mice with a tumor volume of 30 to 50 mm^3 were selected and subjected to the test. The mice were divided into four groups: control group, 5-FU group, LPA group and 5-FU/LPA group (n=3). LPA (3 mg/kg in 100 μL PBS) or 5-FU (100 mg/kg in 100 μL PBS) or PBS (100 μL) was administered intraperitoneally. To 5-FU/LPA group, both LPA and 5-FU were administered intraperitoneally. LPA and PBS were administered once daily for consecutive seven days. 5-FU was administered twice in total, once a week for two weeks (on days 7 and 14 post-inoculation). The tumor size was measured over time after start of administration. The tumor volume was calculated by the formula: volume=length×width×height×0.5. Mice at 2 weeks after start of administration were photographed with a digital camera under anesthesia with pentobarbital. The tumors were harvested and photographed with a digital camera.

[3] = system: VE-cadherin in tumor blood vessels of LLC cell tumors; test: VE-cadherin expression in vascular endothelial cells of tumors after LPA administration; format: in vivo, mice; conditions: LPA 3 mg/kg i.p., 24 hours after administration
Experimental: LLC cells were subcutaneously inoculated into C57BL/6 NCrSlc mice aged 8 weeks (females, SLC, Inc.) in the same manner as in Example 1. An LPA administration solution was prepared in the same manner as in Example 1. Mice on day 9 post-inoculation of LLC cells (individuals with a tumor volume of 60 to 80 mm^3) were subjected to the experiment. The mice were divided into two groups: control group and LPA group (n=3). LPA was intraperitoneally administered to the mice of the LPA group at a dose of 3 mg/kg in 100 μL PBS. The tumors of the control group were harvested just after grouping, and the tumors of the LPA group were harvested at 24 hours after LPA administration. The tumor tissue specimens were immunostained in the same manner as in Example 1 except that the primary antibody and the secondary antibody were changed. The primary antibody was Purified […] Anti-mouse VE-cadherin (BD pharmingen), and the anti-mouse VE-cadherin antibody was diluted to 200-fold in blocking solution. The secondary antibody was Alexa Fluor 488 Goat Anti-rat IgG (Life technologies), and the antibody was diluted to 400-fold in blocking solution. The prepared specimens were observed and photographed under a confocal laser microscope (Leica). Z-stack images were acquired using a confocal laser microscope and analyzed for the expression level (fluorescence intensity) of VE-cadherin.

[4] = system: B16-BL6 cells; test: Lung metastasis from primary lesion in B16-BL6 cell tumor-bearing mice; format: in vivo; conditions: B16-BL6 tumors, LPA 3 mg/kg i.p. once daily until day 21, counted on day 42, vs control, p<0.01
Experimental: B16-BL6 cells (1×10^6 cells in 100 μL PBS per animal) were subcutaneously injected into C57BL/6 NCrSlc mice aged 8 weeks (females, SLC, Inc.). On day 7 post-inoculation of B16-BL6 cells, mice with a tumor volume of 30 to 50 mm^3 were selected. The mice were divided into two groups: control group and LPA group (n=3). LPA (3 mg/kg in 100 μL PBS) or PBS (100 μL) was administered intraperitoneally. LPA or PBS was administered once daily until day 21 post-inoculation. On day 42 post-inoculation of B16-BL6 cells, mice were euthanized and the lung was harvested. The number of metastatic colonies in the harvested lung was counted under a stereoscopic microscope (Leica). For the statistical analysis, Student's t-test was performed.

[5] = system: newly formed blood vessels with increased permeability; test: Hindlimb ischemia model, edema (hindlimb circumference); format: in vivo, mice; conditions: LPA 3 mg/kg i.p. once daily for three days, 24 hours after final administration, vs control
Excerpt: A hindlimb ischemia model is used as a pathological model of Buerger's disease and chronic arteriosclerosis obliterans. In the production of such a model, a blood vessel in the hindlimb of a mouse is dissected to induce ischemia in the region supplied by the blood vessel. The surgical dissection also causes inflammation. The ischemia and inflammation induce angiogenesis. The newly formed blood vessels have increased permeability, which induces edema in the muscles of the hindlimb. An experiment was performed to determine whether LPA inhibits such increased permeability of newly formed blood vessels induced by inflammation or ischemia.
C57BL/6 NCrSlc mice aged 6 weeks (females, SLC, Inc.) were used. An incision was made in the inguinal skin of the right hindlimb under anesthesia with pentobarbital (Kyoritsu Seiyaku Corporation). The femoral vein was ligated at the proximal end, and the saphenous artery and vein were ligated at the distal end. The arteries and veins were excised along with their side branches. The skin incision was closed with a sterilized surgical suture (Natsume Seisakusho). The animal was placed in a 37° C. incubator until the animal recovered from anesthesia. […] At 24 hours after the final administration, the hindlimb circumference was measured.

lysophosphatidic acid [LPA]
delivery of 70 kDa FITC-labeled dextran to tumor [1]: delivery of 70 kDa and 2000 kDa dextrans to tumors in the deep lobe was observed
delivery of 2000 kDa FITC-labeled dextran to tumor [1]: delivery of 70 kDa and 2000 kDa dextrans to tumors in the deep lobe was observed
tumor growth (tumor volume) ([2]; LLC tumors, LPA 3 mg/kg i.p. once daily for seven days, 5-FU 100 mg/kg i.p. on days 7 and 14): some inhibitory effects on tumor growth as compared with the control
appearance of tumors (blood flow) ([2]; LPA alone 3 mg/kg i.p. once daily for seven days): the tumors appeared reddish, indicating an increase in the blood flow
expression level (fluorescence intensity) of VE-cadherin from Z-stack images [3]: a strong fluorescence intensity on the cell membrane
localization of VE-cadherin in tumor vascular endothelial cells [3]: VE-cadherin localized on the cell-cell junctions
lung metastasis (number of lung metastatic colonies) [4]: significantly inhibited
hindlimb circumference (edema) [5]: significantly reduced
